For the experiment, the system named is Calreticulin. Briefly: FACS analysis of expression level of calreticulin on tumor cell surface. Type of experiment: cell-based, Human. The conditions noted are these: Toledo cells; for Mean Fluorescence Intensity (MFI) Calreticulin: 12 hours. Summed up: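 Toledo cells (0.2×10^6 cells/well) were treated with small-molecule agents for 12 hours. Harvested cells were stained with anti-calreticulin and anti-CD47 antibodies in the dark at 4° C for 30 min, then read by flow cytometry.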
(In general: In flow cytometry, cells or beads pass a laser one at a time.)

Structures are written as SMILES.

For `Nc1ncn([C@@H]2O[C@H](CO)[C@@H](O)[C@H]2O)c(=O)n1` [Azacitidine], the “Mean Fluorescence Intensity (MFI) Calreticulin” value came to 65.8 (0.008 uM); 71.9 (0.04 uM); 88.4 (0.2 uM); 174 (1 uM); 491 (5 uM). In addition, the “increase of the expression level of calreticulin” value (dose of 5 μM) is “about 20 folds”.

The values are drawn from patent publication US20230174649A1, “PHARMACEUTICAL COMPOSITIONS CONTAINING ANTI-CD47 ANTIBODIES” (I-MAB BIOPHARMA US LIMITED, priority 2020, published 2023).
